Reference: US12295959B2 (priority 2021, dated 2025)
pEC50, pIC50: −log10 of the molar value.

Key:
rat cortical neurons = experiment: Neurite outgrowth assay; assay type: cell-based; set-up: key: A: Statistically significant mean increase as a percent of DMSO control at 10 μM or less.; B: No statistically significant mean increase as a percent of DMSO control at 10 μM or less; conditions: 72 h, 10 μM or less, vs DMSO control
Excerpt: Neurite Outgrowth Assay. Changes in the pattern of neurite outgrowth have been implicated in psychiatric and neurodegenerative disorders as well as traumatic injuries. The discovery of new compounds that can positively affect neuritogenesis are important for developing new therapeutics for neurological diseases. Measurement of neurite outgrowth of rat cortical neurons using an automated image-based assay was used to determine the neuroplastic effects of the compounds of the present invention. The neurite outgrowth assay was performed at Neurofit SAS (France) as described below.
Pregnant Wistar rats (Janvier; France) were used for the study. They were delivered 6 days before their use. Upon arrival at Neurofit animal facility, they were housed one per cage and maintained in a room with controlled temperature (21-22° C.) and a reversed light-dark cycle (12 h/12 h; lights on: 17:30-05:30; lights off: 05:30-17:30) with food and water available ad libitum.
Female Wistar rats of 17 days gestation were killed by cervical dislocation and the fetuses were removed from the uterus. Their brains were placed in ice-cold medium of Leibovitz (L15, Gibco, Fisher bioblock, France). Cortices were dissected and meninges were carefully removed. The cortical neurons were dissociated by trypsinization for 30 min at 37° C. (trypsin-EDTA, Gibco) in presence of 0.1 mg/ml DNAse I (Roche, France). The reaction was stopped by addition of Dulbecco's Modified Eagle Medium (DMEM; Gibco) with 10% of fetal bovine serum (FBS; Gibco). The suspension was triturated with a 10-ml pipette and using a needle syringe 21G and centrifuged at 350×g for 10 min at room temperature. The pellet of dissociated cells was resuspended in a medium consisting of Neurobasal (Gibco) supplemented with 2% B27 supplement (Gibco), 0.5 mM L-Glutamine (Gibco), an antibiotic-antimicotic mixture. Viable cells were counted in a Neubauer cytometer using the trypan blue exclusion test (Sigma). Cells were seeded at a density of 10000 cells per well in 96-well plate (Costar) precoated with poly-L-lysine. Test compound at different concentrations were added to the cultures. Donepezil (positive control) was tested at 250 nM.
After 72 h (3 days) of plating, cultures were fixed with paraformaldehyde in PBS (4%, Sigma) for 30 min at 4° C. Then, cells were successively permeabilized with 0.1% Triton X100 for 30 min, saturated with PBS containing 3% of BSA and were incubated 1 h with anti-beta III tubulin antibody (Sigma) at 1/10 000 in PBS containing 0.5% of BSA. Cells were washed three times with PBS containing 0.5% of BSA, and they were incubated 1 h with goat anti-mouse antibody coupled with AF488 (Invitrogen A 11001) diluted at 1/1000 in PBS containing 0.5% of BSA. Finally, nuclei were staining with DAPI 1 mg/ml at 1/1000 in PBS containing 0.5% of BSA. After rinsing with PBS, the plate was filmed and neurite networks were examined and analyzed using High-Content Screening (CellInsight, Thermo Scientific). The average number of neurites per neuron and the average total length of neurites per neuron were the main parameters analyzed. Analysis of data was performed using analysis of variance (ANOVA). The Fisher's Protected Least Significant Difference test was used for multiple comparisons. A p value≤0.05 was considered significant. The software used is StatView 5.0 from SAS Institut.

5-HT2A [1] = target: T1, 5-HT2A (Homo sapiens, UniProt P28223); experiment: Serotonin 5-HT2A in vitro cellular IPOne antagonism assay; assay type: cell-based; set-up: host or cells: CHO-K1; conditions: CHO-K1 cells, antagonist mode, reference agonist a-Me-5HT
T1 sequence (P28223 whole entry): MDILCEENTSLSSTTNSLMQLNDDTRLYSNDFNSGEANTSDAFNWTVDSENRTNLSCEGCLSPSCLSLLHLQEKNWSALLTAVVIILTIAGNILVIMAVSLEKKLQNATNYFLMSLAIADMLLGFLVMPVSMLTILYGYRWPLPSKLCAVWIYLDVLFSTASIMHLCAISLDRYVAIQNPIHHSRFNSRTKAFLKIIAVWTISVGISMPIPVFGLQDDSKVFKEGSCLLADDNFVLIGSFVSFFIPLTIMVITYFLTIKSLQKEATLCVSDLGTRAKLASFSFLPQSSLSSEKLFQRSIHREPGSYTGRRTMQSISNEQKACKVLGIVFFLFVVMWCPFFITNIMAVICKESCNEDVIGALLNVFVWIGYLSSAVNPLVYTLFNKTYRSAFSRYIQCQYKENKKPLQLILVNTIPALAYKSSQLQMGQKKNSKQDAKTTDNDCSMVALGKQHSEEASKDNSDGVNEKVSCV
Experimental: (§1) Serotonin 5-HT2A and 5-HT2C In Vitro Cellular IPOne Antagonism Assay. The 5-HT2A IPOne HTRF assay was performed at Epics Therapeutics S.A. (Belgium, FAST-0505I) in antagonism mode using conventional methods. Briefly, CHO-K1 cells expressing human recombinant 5-HT2A receptor grown to mid-log phase in culture media without antibiotics were detached with PBS-EDTA, centrifuged, and resuspended in medium without antibiotics buffer. 20,000 cells were distributed in a 96 well plate and incubated overnight at 37° C. with 5% CO2.
For antagonist testing, a reference agonist a-Me-5HT was added and fluorescence signal monitored for several minutes, followed by addition of 20 μl of assay buffer plus 20 μl of test compound or reference antagonist ketanserin, in each well. The plate was incubated for 60 min. at 37° C. with 5% CO2.
(§2) After addition of the lysis buffer containing IP1-d2 and anti-IP1 cryptate detection reagents, plates were incubated 1-hour at room temperature, and fluorescence ratios were measured according to the manufacturer specification, with the HTRF kit.

5-HT2A [2] = target: T1, 5-HT2A; experiment: Serotonin 5-HT2A in vitro radioligand binding competition assay ([3H]-DOI); set-up: purchased Epics Therapeutics S.A. (Belgium) FAST-0505B; host or cells: membrane extracts; conditions: [3H]-DOI competition, membrane extracts
Experimental: Serotonin 5-HT2A In Vitro Radioligand Binding Competition Assay. The 5-HT2A radioligand binding competition assay was performed at Epics Therapeutics S.A. (Belgium, FAST-0505B) using conventional methods. Briefly, competition binding was performed in duplicate in the wells of a 96 well plate (Master Block, Greiner, 786201) containing binding buffer (optimized for each receptor), membrane extracts (amount of protein/well optimized for each receptor), radiotracer [^3H]-DOI (final concentration optimized for each receptor) and test compound. Nonspecific binding was determined by co-incubation with 200-fold excess of cold competitor. The samples were incubated in a final volume of 0.1 ml at a temperature and for a duration optimized for each receptor and then filtered over filter plates. Filters were washed six times with 0.5 ml of ice-cold washing buffer (optimized for each receptor) and 50 μl of Microscint 20 (Packard) was added in each well. The plates were incubated 15 min on an orbital shaker and then counted with a TopCount™ for 1 min/well.

5-HT2A [3] = target: T1, 5-HT2A; experiment: Serotonin 5-HT2A in vitro cellular IPOne agonism assay (HTRF); assay type: cell-based; set-up: host or cells: CHO-K1; conditions: CHO-K1 cells, agonist mode
Experimental: as §1, with “5-HT2A” for “5-HT2A and 5-HT2C”, “Agonism” for “Antagonism”, “FAST-0505I)” for “FAST-0505I) in antagonism mode”
For agonist testing, the medium was removed and 20 μl of assay buffer plus 20 μl of test compound or reference agonist are added in each well. The plate was incubated for 60 min. at 37° C. with 5% CO2.
as §2

Structure (SMILES) | Increase in Neurite Branching (rat cortical neurons) | Increase in Neurite Length (rat cortical neurons) | Increase in Neurite Number (rat cortical neurons) | pIC50 (5-HT2A [1]) | pIC50 (5-HT2A [2]) | pEC50 (5-HT2A [3])
CN1CCc2[nH]c3ccc(OCc4ccccc4)cc3c2CC1 [Compound 26, 9-(benzyloxy)-3-methyl-1,2,3,4,5,6-hexahydroazepino[4,5-b]indole] | A | A | A | 6.00 to 7.00 | 6.00 to 7.00 | < 5.00
CN1CCc2[nH]c3cc(OCc4ccccc4)ccc3c2CC1 [Compound 1, 8-(benzyloxy)-3-methyl-1,2,3,4,5,6-hexahydroazepino[4,5-b]indole] | B | A | A | 6.00 to 7.00 | 6.00 to 7.00 | < 5.00
Fc1ccc(COc2ccc3c4c([nH]c3c2)CCNCC4)cc1 [Compound 7, 8-((4-fluorobenzyl)oxy)~1,2,3,4,5,6-hexahydroazepino[4,5-b]indole] | B | B | B | 6.00 to 7.00 | 6.00 to 7.00 | 6.00 to 7.00
Cn1c2c(c3ccc(Oc4ccccc4)cc31)CCNCC2 [Compound 13, 6-methyl-8-phenoxy-1,2,3,4,5,6-hexahydroazepino[4,5-b]indole] |  |  |  |  | 5.00 to 6.00 | 6.00 to 7.00
Cn1c2c(c3c(OCc4ccccc4)cccc31)CCNCC2 [Compound 19, 10-(benzyloxy)-6-methyl-1,2,3,4,5,6-hexahydroazepino[4,5-b]indole] | B | B | B | 6.00 to 7.00 | 6.00 to 7.00 | 5.00 to 6.00
CN1CCc2c(n(C)c3cc(Oc4ccccc4)ccc23)CC1 [Compound 14, 3,6-dimethyl-8-phenoxy-1,2,3,4,5,6-hexahydroazepino[4,5-b]indole] | B | A | B | 5.00 to 6.00 | 5.00 to 6.00 | < 5.00
CN1CCc2[nH]c3c(Br)ccc(OCc4ccccc4)c3c2CC1 [Compound 29, 10-(benzyloxy)-7-bromo-3-methyl-1,2,3,4,5,6-hexahydroazepino[4,5-b]indole] | B | A | B | 7.00 to 8.00 | 7.00 to 8.00 | 7.00 to 8.00
Cn1c2c(c3ccc(Oc4ccc(F)cc4)cc31)CCNCC2 [Compound 17, 8-(4-fluorophenoxy)-6-methyl-1,2,3,4,5,6-hexahydroazepino[4,5-b]indole] |  |  |  |  | 6.00 to 7.00 | 6.00 to 7.00
CN1CCc2[nH]c3cc(Oc4ccccc4)ccc3c2CC1 [Compound 12, 3-methyl-8-phenoxy-1,2,3,4,5,6-hexahydroazepino[4,5-b]indole] | A | A | A | 6.00 to 7.00 | 6.00 to 7.00 | < 5.00
CN1CCc2[nH]c3cc(OCc4ccc(F)cc4)ccc3c2CC1 [Compound 8, 8-((4-fluorobenzyl)oxy)-3-methyl-1,2,3,4,5,6-hexahydroazepino[4,5-b]indole] | A | A | A | 7.00 to 8.00 | 6.00 to 7.00 | < 5.00
c1ccc(COc2ccc3c4c([nH]c3c2)CCNCC4)cc1 [Compound 3, 8-(benzyloxy)-1,2,3,4,5,6-hexahydroazepino[4,5-b]indole] | A | A | A |  | 6.00 to 7.00 | 6.00 to 7.00
Fc1ccc(Oc2ccc3c4c([nH]c3c2)CCNCC4)cc1 [Compound 15, 8-(4-fluorophenoxy)-1,2,3,4,5,6-hexahydroazepino[4,5-b]indole] | A | A | A |  | 6.00 to 7.00 | 6.00 to 7.00
c1ccc(Oc2cccc3[nH]c4c(c23)CCNCC4)cc1 [Compound 20, 10-phenoxy-1,2,3,4,5,6-hexahydroazepino[4,5-b]indole] |  | B |  |  | 7.00 to 8.00 | 7.00 to 8.00
c1ccc(COc2cccc3[nH]c4c(c23)CCNCC4)cc1 [Compound 4, 10-(benzyloxy)-1,2,3,4,5,6-hexahydroazepino[4,5-b]indole] |  | B | B |  | 7.00 to 8.00 | > 8.00
c1ccc(Oc2ccc3c4c([nH]c3c2)CCNCC4)cc1 [Compound 11, 8-phenoxy-1,2,3,4,5,6-hexahydroazepino[4,5-b]indole] |  |  |  | 6.00 to 7.00 | 5.00 to 6.00 | 5.00 to 6.00
c1ccc(COc2cccc3c4c([nH]c23)CCNCC4)cc1 [Compound 27, 7-(benzyloxy)-1,2,3,4,5,6-hexahydroazepino[4,5-b]indole] |  | A |  |  | 6.00 to 7.00 | 6.00 to 7.00
Cn1c2c(c3c(Oc4ccc(F)cc4)cccc31)CCNCC2 [Compound 23, 10-(4-fluorophenoxy)-6-methyl-1,2,3,4,5,6-hexahydroazepino[4,5-b]indole] |  |  |  |  | 7.00 to 8.00 | 6.00 to 7.00
Fc1ccc(Oc2cccc3[nH]c4c(c23)CCNCC4)cc1 [Compound 21, 10-(4-fluorophenoxy)-1,2,3,4,5,6-hexahydroazepino[4,5-b]indole] | B | B | B |  | 7.00 to 8.00 | 7.00 to 8.00
